# In patent publication US5352602A, “Isoamylase and process for producing the same” (Amano Pharmaceutical Co., Ltd., priority 1992, dated 1994):
# Entries after “also recorded” stand apart in the source; their conditions may differ. Where two headings read alike, the source gives them in different places.
# Key:
# [1] = tested on: isoamylase of Xanthomonas maltophilia S-517; assay: Influence of inhibitors and metal salts on isoamylase activity; format: biochemical; conditions: for Inhibition by Metal Salt: Table 3, isoamylase of Xanthomonas maltophilia S-517 (Invention); for Inhibition of the enzyme of the present invention: in words
# Protocol: Measurements of activity of the enzyme of the present invention were made as follows in accordance with the method of Maruo-Kobayashi (see NIHON NOGEI KAISHI, Vol. 23, pp. 115-120 (1949).
# A reaction system consisting of 2.0 ml of a 1.0% soluble starch (glutinous rice) solution, 0.4 ml of a 0.5M acetate buffer solution (pH=3.5), and 0.4 ml of an enzyme liquid was allowed to react at 40° C. for 30 minutes. To the reaction system was added 0.4 ml of a 0.01N iodine solution. After dilution with water to 10 ml, the absorbance at 610 nm was measured. The enzyme activity on an absorbance increase of 0.1 within 1 hour was taken as 10 units.
# [2] = tested on: isoamylase of Pseudomonas origin; conditions: cited from earlier work; for Inhibition by Metal Salt: Table 3, isoamylase of Pseudomonas origin; for Inhibition of the enzyme derived from Pseudomonas: in words
# [3] = tested on: isoamylase of Xanthomonas maltophilia S-517; assay: Substrate specificity of the purified isoamylase; format: biochemical; conditions: for Substrate specificity: in words; for Initial Velocity: relative, glycogen = 100; for V: velocity of the purified isoamylase on the named substrate
molecule,measurement,setting,value
O=[N+]([O-])c1ccc(O)c(CBr)c1 [2-Hydroxy-5-nitrobenzyl bromide],Percent Inhibition,[1]; inhibitor concentration 0.1 mM,14.3%
CC(=O)I [Acetyl monoiodide],Percent Inhibition,[1]; inhibitor concentration 0.1 mM,10.1%
same,Percent Inhibition,[1]; inhibitor concentration 5 mM,34.6%
O=[N+]([O-])[O-].[Ag+] [AgNO3],Percent Inhibition,[1]; inhibitor concentration 1 mM,98.0%
[Cl][Cu][Cl] [CuCl2],Percent Inhibition,[1]; inhibitor concentration 1 mM,20.7%
O=C(O)CN(CCN(CC(=O)O)CC(=O)O)CC(=O)O [EDTA],Percent Inhibition,[1]; inhibitor concentration 5 mM,0%
"O=C1O[C@H](CO)[C@@H](O)[C@H](O)[C@H]1O [Glucono-1,5-lactone]",Percent Inhibition,[1]; inhibitor concentration 10 mM,8.0%
[Cl][Hg][Cl] [HgCl2],Percent Inhibition,[1]; inhibitor concentration 1 mM,42.2%
[Cl-].[Cl-].[Mg+2] [MgCl2],Inhibition by Metal Salt,[2],0%
same,Inhibition of the enzyme derived from Pseudomonas,[2],not inhibited
same,Inhibition by Metal Salt,[1],26.3%
same,Inhibition of the enzyme of the present invention,[1],inhibited
same,Percent Inhibition,[1]; inhibitor concentration 1 mM,26.3%
O=C1CCC(=O)N1Br [N-Bromosuccinimide],Percent Inhibition,[1]; inhibitor concentration 0.01 mM,100.0%
[Cl-].[Na+] [NaCl],Percent Inhibition,[1],0%
[F-].[Na+] [NaF],Inhibition by Metal Salt,[2],19%
same,Inhibition of the enzyme derived from Pseudomonas,[2],inhibited
same,Inhibition by Metal Salt,[1],0%
same,Inhibition of the enzyme of the present invention,[1],not inhibited
same,Percent Inhibition,[1]; inhibitor concentration 1 mM,0%
O=C(O)c1cc[c]([Hg][Cl])cc1 [PCMB],Inhibition by Metal Salt,[2],34%
same,Inhibition of the enzyme derived from Pseudomonas,[2],inhibited
same,Inhibition by Metal Salt,[1],0%
same,Inhibition of the enzyme of the present invention,[1],not inhibited
same,Percent Inhibition,[1]; inhibitor concentration 1 mM,0%
I[I-]I.[K+] [Potassium iodoiodide],Percent Inhibition,[1]; inhibitor concentration 1 mM,4.5%
O=C1CCC(=O)O1 [Succinic anhydride],Percent Inhibition,[1]; inhibitor concentration 5 mM,8.4%
OCCS [β-Mercaptoethanol],Percent Inhibition,[1]; inhibitor concentration 10 mM,31.7%
Ammonium molybdate,Percent Inhibition,[1]; inhibitor concentration 1 mM,0%
Amylopectin,Substrate specificity,[3],acts
same,Initial Velocity,[3],34.7%
same,V,[3],2.18 × 10^-1 μmol/min/U
Glycogen,Substrate specificity,[3],actively acts
same,Initial Velocity,[3],100%
same,V,[3],6.28 × 10^-1 μmol/min/U
Pullulan,Substrate specificity,[3],does not act; also recorded: hardly acts
same,Initial Velocity,[3],1.3%
same,V,[3],8.45 × 10^-3 μmol/min/U
